Some test systems named below: K-562 leukemia; U251 CNS; DU-145 prostate; LOX IMVI melanoma; HL-60(TB) leukemia; M14 melanoma; TK-10 renal; NCI-H460 lung; BT-549 breast; SK-MEL-5 melanoma; CCRF-CEM leukemia; MDA-MB-435; EKVX NSCLC; SF-295 CNS; SK-MEL-2 melanoma; HCT-116 colon; KM12 colon; HCC-2998 colon; SR leukemia; CAKI-1 renal.
What all share (test): NCI anticancer screen, dose series, 48 h

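48-hour exposure; five concentrations; linearly interpolated endpoints. TGI marks complete inhibition of growth.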

For the molecule `CC1(C)CCC[C@@]2(C)C1C(=O)[C@@H]1O[C@]1(C)[C@@H]2CO` (some centres undefined), the TGI is more than 100 µM with K-562 leukemia; 70.8 µM in the assay on U251 CNS; more than 100 µM with DU-145 prostate; more than 100 µM in the assay on LOX IMVI melanoma; 51.8 µM in the assay on HL-60(TB) leukemia; more than 100 µM in the assay on M14 melanoma. The TGI with TK-10 renal is more than 100 µM; in the assay on NCI-H460 lung, more than 100 µM; with BT-549 breast, 43.6 µM; with SK-MEL-5 melanoma it was more than 100 µM; in the assay on CCRF-CEM leukemia it was more than 100 µM; in the assay on MDA-MB-435 it was more than 100 µM. Besides, the TGI is more than 100 µM in the assay on EKVX NSCLC; more than 100 µM with SF-295 CNS; 66.5 µM in the assay with SK-MEL-2 melanoma; more than 100 µM in the assay on HCT-116 colon; more than 100 µM in the assay with KM12 colon; 66.5 µM in the assay with HCC-2998 colon. In the assay with SR leukemia, this molecule registered a TGI of 24.9 µM.

In the case of `COC(=O)c1nc(-c2nc(CCNC(=O)OC(C)(C)C)sc2Cl)sc1Cl`, the TGI in the assay with K-562 leukemia, in the assay with U251 CNS, in the assay with DU-145 prostate, with HL-60(TB) leukemia, with M14 melanoma and in the assay with TK-10 renal was more than 100 µM in each case. For the same molecule, the TGI in the assay on NCI-H460 lung, in the assay with BT-549 breast, with SK-MEL-5 melanoma, with CCRF-CEM leukemia, with MDA-MB-435 and in the assay on EKVX NSCLC was more than 100 µM throughout. The TGI in the assay on SF-295 CNS, with HCT-116 colon, in the assay on KM12 colon, in the assay on HCC-2998 colon and with SR leukemia was more than 100 µM in each case.

On to `S=C1N=C(Cl)/C(=C\c2ccco2)N1`, for which the TGI in the assay with K-562 leukemia, in the assay on U251 CNS, in the assay on DU-145 prostate, in the assay on LOX IMVI melanoma, in the assay with HL-60(TB) leukemia and in the assay with CAKI-1 renal was more than 100 µM throughout. Also, the TGI in the assay with M14 melanoma, in the assay on TK-10 renal, in the assay with NCI-H460 lung, in the assay on BT-549 breast, in the assay with SK-MEL-5 melanoma and with CCRF-CEM leukemia was more than 100 µM in each case. Moreover, the TGI in the assay with MDA-MB-435, with EKVX NSCLC, in the assay on SF-295 CNS, in the assay on SK-MEL-2 melanoma, with HCT-116 colon and with KM12 colon was more than 100 µM each time. The molecule further registered a TGI with SR leukemia of more than 100 µM.

In the case of `Cc1sc(N)c(S(=O)(=O)c2ccccc2)c1C`, the TGI in the assay on K-562 leukemia, in the assay on U251 CNS, with DU-145 prostate, with HL-60(TB) leukemia, in the assay with CAKI-1 renal and in the assay with M14 melanoma was more than 100 µM each time. The TGI with TK-10 renal, with NCI-H460 lung, in the assay on BT-549 breast, with SK-MEL-5 melanoma, in the assay with CCRF-CEM leukemia and with MDA-MB-435 was more than 100 µM in each case. Further, the TGI in the assay with EKVX NSCLC, in the assay with SF-295 CNS, with SK-MEL-2 melanoma, in the assay on HCT-116 colon, in the assay on KM12 colon and in the assay on HCC-2998 colon was more than 100 µM in each case. Further, the TGI in the assay on SR leukemia is more than 100 µM.

For the molecule `O=S(=O)(NC1OCCCC1I)c1ccccc1` (centres undefined), the TGI in the assay on K-562 leukemia, in the assay with U251 CNS, in the assay on DU-145 prostate, in the assay with LOX IMVI melanoma, in the assay on CAKI-1 renal and in the assay with TK-10 renal was more than 100 µM each time. The TGI in the assay with NCI-H460 lung, in the assay on BT-549 breast, in the assay with SK-MEL-5 melanoma, with CCRF-CEM leukemia, in the assay on MDA-MB-435 and with EKVX NSCLC was more than 100 µM in each case. Moreover, the TGI in the assay on SF-295 CNS, with SK-MEL-2 melanoma, with HCT-116 colon, with KM12 colon, with HCC-2998 colon and in the assay on SR leukemia was more than 100 µM in each case.

In the case of `CC(C)c1cccc(C(=O)NCCN(C)C)c1[N+](=O)[O-]`, the TGI in the assay with K-562 leukemia, with U251 CNS, in the assay with DU-145 prostate, in the assay on HL-60(TB) leukemia, in the assay on CAKI-1 renal and in the assay with M14 melanoma was more than 100 µM throughout. The TGI is more than 100 µM in the assay with TK-10 renal; more than 100 µM in the assay on NCI-H460 lung; 97.4 µM with BT-549 breast; more than 100 µM in the assay with SK-MEL-5 melanoma; more than 100 µM in the assay with CCRF-CEM leukemia; more than 100 µM in the assay with MDA-MB-435. In addition, the TGI in the assay on SF-295 CNS, in the assay with SK-MEL-2 melanoma, with HCT-116 colon, in the assay on KM12 colon, in the assay with HCC-2998 colon and in the assay with SR leukemia was more than 100 µM in each case.

With `CCOP(=O)(OCC)[C@]12C[C@@H](C)C=C[C@H]1COC2=O`, the TGI in the assay with K-562 leukemia, with U251 CNS, with DU-145 prostate, in the assay with LOX IMVI melanoma, with CAKI-1 renal and with M14 melanoma was more than 100 µM in each case. The TGI in the assay with TK-10 renal, in the assay on NCI-H460 lung, in the assay on BT-549 breast, with SK-MEL-5 melanoma, in the assay on CCRF-CEM leukemia and in the assay on MDA-MB-435 was more than 100 µM throughout. Moreover, the TGI in the assay on EKVX NSCLC, in the assay on SF-295 CNS, in the assay with SK-MEL-2 melanoma, in the assay with HCT-116 colon, in the assay with KM12 colon and with HCC-2998 colon was more than 100 µM each time. In the assay on SR leukemia, this molecule gave a TGI of more than 100 µM.

For the origin of these results see PubChem BioAssay (NCI).
